Assay [1] addresses T1, EGFR D770_N771insSVD (insSVD) (Homo sapiens, UniProt P00533, INS770SVD).
T1 construct: expressed in transfected cells; host or cells: NIH-3T3 (mouse fibroblasts), PiggyBac PB-CMV-MCS-EF1-RFP+Puro vector
The assay is described as follows: EGFR autophosphorylation inhibitory activity in NIH3T3-EGFRinsSVD cells. The assay is classed as cell-based. On the procedure:
The autophosphorylation inhibitory activity of a compound against wild-type EGFR and mutant EGFR was evaluated using NIH-3T3 cells, which are mouse fibroblast cell lines to which human EGFR gene was introduced. NIH-3T3 cells were maintained in a D-MEM (high-glucose) medium (Wako Pure Chemical Industries, Ltd.) containing 10% newborn calf serum (NBCS), 1,500 mg/L sodium hydrogen carbonate, and 100 U/mL penicillin/[…] streptomycin (Thermo Fisher Scientific).
To evaluate EGFR-autophosphorylation inhibitory activity, NIH3T3 cells to which human EGFR was introduced were suspended in respective mediums. These cell suspensions were individually seeded into a 60-mm dish or 6-well flat-bottom plate, and incubated in a 5% CO2-containing incubator at 37° C. for 1 day. […] The protein concentration was measured using a BCA protein assay kit (Thermo Fisher Scientific), and each sample was adjusted to a protein concentration suitable for measurement of phosphorylated EGFR expression. The phosphorylated EGFR expression was measured using a Simple Western (trademark) assay system (ProteinSimple) in accordance with the manufacturer's recommended protocol. […]
Additionally, the selectivity for wild-type EGFR and EGFR exon 20 insertion mutation was calculated using the following formula. […]

The next assay concerns the target wild-type EGFR (Homo sapiens, UniProt P00533). In words: Phosphorylated EGFR inhibitory activity in A431 cells (Simple Western). It counts as cell-based. The arrangement: A431 cells, which are human epithelial cancer cell lines overexpressing wild-type EGFR; endogenous in cells; host or cells: A431 (human epithelial cancer cell line). The following applies: 6 hours, Tyr1068. On the procedure:
A431 cells, which are human epithelial cancer cell lines overexpressing wild-type EGFR and H1975-EGFRinsSVD cells, which are human pulmonary adenocarcinoma cell lines expressing EGFR with mutation D770_N771insSVD by gene modification, were suspended in respective mediums. These cell suspensions were individually seeded into a 60-mm dish, and incubated in a 5% CO2-containing incubator at 37° C. for 1 day. Compound A was dissolved in DMSO, and diluted with DMSO such that the test compound has a concentration 1000 times higher than the final concentration. The DMSO solution of the test compound was diluted with each medium used for suspending the cells, and each diluted solution was added to respective culture dishes of the cells such that DMS 0 has a final concentration of 0.1%, followed by incubation in a 5% CO2-containing incubator at 37° C. for 6 hours. After incubation, the cells were collected, and stored at −80° C. in the form of pellets until use. […] The concentration of the proteins were measured using a BCA protein assay kit (Thermo Fisher Scientific), and each sample was adjusted so as to have a protein concentration suitable for measurement of phosphorylated EGFR expression. The phosphorylated EGFR expression was measured using a Simple Western (trademark) assay system […]

T1 sequence (P00533 with tags, fused parts or gaps INS770SVD): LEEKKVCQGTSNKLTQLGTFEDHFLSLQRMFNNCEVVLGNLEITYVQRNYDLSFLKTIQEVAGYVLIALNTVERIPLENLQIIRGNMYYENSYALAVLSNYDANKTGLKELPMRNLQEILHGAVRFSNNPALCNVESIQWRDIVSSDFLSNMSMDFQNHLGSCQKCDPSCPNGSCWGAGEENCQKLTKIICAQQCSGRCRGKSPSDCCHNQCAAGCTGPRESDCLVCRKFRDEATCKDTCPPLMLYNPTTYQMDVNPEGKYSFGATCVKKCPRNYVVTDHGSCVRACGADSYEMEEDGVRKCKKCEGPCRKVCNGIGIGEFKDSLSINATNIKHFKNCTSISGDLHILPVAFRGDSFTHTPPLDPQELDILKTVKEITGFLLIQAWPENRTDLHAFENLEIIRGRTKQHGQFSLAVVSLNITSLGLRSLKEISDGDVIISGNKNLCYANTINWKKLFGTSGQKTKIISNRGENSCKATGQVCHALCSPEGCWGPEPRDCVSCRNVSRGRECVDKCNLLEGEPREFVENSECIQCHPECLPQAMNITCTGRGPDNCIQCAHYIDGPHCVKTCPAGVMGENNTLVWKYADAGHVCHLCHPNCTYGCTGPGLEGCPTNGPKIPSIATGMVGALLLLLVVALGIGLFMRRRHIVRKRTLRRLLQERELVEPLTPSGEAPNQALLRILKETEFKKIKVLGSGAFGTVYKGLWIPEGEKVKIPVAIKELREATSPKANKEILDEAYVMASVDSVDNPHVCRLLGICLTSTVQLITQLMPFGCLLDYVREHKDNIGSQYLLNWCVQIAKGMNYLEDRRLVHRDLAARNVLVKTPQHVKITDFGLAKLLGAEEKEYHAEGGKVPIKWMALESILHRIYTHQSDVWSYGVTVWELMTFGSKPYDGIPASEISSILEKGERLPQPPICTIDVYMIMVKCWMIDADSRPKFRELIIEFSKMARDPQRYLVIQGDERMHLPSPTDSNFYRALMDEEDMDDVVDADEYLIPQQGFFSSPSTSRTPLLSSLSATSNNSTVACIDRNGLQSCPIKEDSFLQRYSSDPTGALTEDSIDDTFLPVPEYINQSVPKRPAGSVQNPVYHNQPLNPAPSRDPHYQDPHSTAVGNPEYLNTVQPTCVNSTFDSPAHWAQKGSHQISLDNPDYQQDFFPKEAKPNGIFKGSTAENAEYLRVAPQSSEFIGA
wild-type EGFR, sequence (P00533 25-1210): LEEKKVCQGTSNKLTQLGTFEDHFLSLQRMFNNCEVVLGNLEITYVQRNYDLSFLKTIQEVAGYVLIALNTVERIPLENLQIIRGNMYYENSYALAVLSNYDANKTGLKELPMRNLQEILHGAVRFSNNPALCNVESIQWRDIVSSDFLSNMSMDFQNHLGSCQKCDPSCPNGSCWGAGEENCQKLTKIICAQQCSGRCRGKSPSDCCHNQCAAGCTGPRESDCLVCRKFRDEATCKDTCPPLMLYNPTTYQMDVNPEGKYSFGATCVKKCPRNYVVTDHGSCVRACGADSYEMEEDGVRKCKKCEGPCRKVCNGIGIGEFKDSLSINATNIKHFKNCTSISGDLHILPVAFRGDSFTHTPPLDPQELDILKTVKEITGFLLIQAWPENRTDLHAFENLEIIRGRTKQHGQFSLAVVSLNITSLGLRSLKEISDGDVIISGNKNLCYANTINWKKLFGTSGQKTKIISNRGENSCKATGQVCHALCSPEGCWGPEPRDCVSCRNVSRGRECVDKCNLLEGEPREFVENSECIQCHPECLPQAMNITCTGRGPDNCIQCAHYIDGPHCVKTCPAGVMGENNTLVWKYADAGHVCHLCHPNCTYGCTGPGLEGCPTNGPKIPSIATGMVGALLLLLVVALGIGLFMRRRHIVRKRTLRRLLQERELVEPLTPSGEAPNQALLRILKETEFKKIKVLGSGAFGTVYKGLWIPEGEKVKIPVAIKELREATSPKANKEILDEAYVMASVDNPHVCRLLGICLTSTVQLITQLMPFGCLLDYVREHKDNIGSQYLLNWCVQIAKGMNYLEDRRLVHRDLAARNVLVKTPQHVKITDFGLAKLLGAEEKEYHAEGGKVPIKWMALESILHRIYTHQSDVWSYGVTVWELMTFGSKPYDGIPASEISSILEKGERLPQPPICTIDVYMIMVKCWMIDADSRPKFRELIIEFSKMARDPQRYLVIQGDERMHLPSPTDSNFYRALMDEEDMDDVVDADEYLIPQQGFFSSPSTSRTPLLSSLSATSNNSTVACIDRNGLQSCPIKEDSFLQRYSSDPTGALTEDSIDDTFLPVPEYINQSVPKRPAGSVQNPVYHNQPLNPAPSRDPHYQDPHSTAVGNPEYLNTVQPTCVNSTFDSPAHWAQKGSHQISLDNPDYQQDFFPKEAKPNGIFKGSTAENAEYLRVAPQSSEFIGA

Broadly, the IC50 is the concentration that gives 50% inhibition. Regarding `C=CC(=O)N[C@H]1C=C(C)c2c(-c3cnc4ccccc4c3)c3c(N)ncnc3n2C1` [Compound A, (S)—N-(4-amino-6-methyl-5-(quinolin-3-yl)-8,9-dihydropyrimido[5,4-b]indolizin-8-yl)acrylamide], the IC50 in assay [1] (NIH3T3-EGFRinsSVD, 6 hours, read-out: IC50 phosphorylated EGFR, insSVD) was determined as 33 nM; on wild-type EGFR, 535 nM. Also, in assay [1] (NIH3T3 cells, phosphorylated EGFR), the “IC50 Ratio=IC50 (WT)/IC50 (insSVD)” value is 17.1.

The values are drawn from patent US11857513B2, “Selective inhibitor of exon 20 insertion mutant EGFR” (Taiho Pharmaceutical Co., Ltd., priority 2016, dated 2024).
